Data from patent US8802597B2, “Herbicidal pyrimidines” (E I du Pont de Nemours and Company, priority 2003, dated 2014).

How the values were obtained:
Format in all cases: in vivo
[1] = tested on: Surinam grass (Brachiaria decumbens); experiment: Test B pre/postemergence; settings: for Surinam Grass plant response rating: Postemergence; for Plant response rating, Surinam Grass: Preemergence
Summary of the method: (§1)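 Visual rating, 0 (no effect) to 100 (complete control) versus controls, taken 13–15 days after treatment in greenhouse. Compounds formulated in non-phytotoxic solvent plus surfactant; pre: sprayed after seeding; post: plants at 1- to 4-leaf stage, 2–18 cm.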

[2] = tested on: barnyardgrass (Echinochloa crus-galli); experiment: Test B pre/postemergence; settings: for Barnyardgrass plant response rating: Postemergence; for Plant response rating, Barnyardgrass: Preemergence
Summary of the method: as §1

[3] = tested on: cocklebur (Xanthium strumarium); experiment: Test B pre/postemergence; settings: for Cocklebur plant response rating: Postemergence; for Plant response rating, Cocklebur: Preemergence
Summary of the method: as §1

corn (Zea mays) = experiment: Test B pre/postemergence; settings: for Corn plant response rating: Postemergence; for Plant response rating, Corn: Preemergence
Summary of the method: as §1

[4] = tested on: crabgrass (Digitaria sanguinalis); experiment: Test B pre/postemergence; settings: for Crabgrass plant response rating: Postemergence; for Plant response rating, Crabgrass: Preemergence
Summary of the method: as §1

[5] = tested on: giant foxtail (Setaria faberii); experiment: Test B pre/postemergence; settings: for Foxtail, Giant plant response rating: Postemergence; for Plant response rating, Foxtail, Giant: Preemergence
Summary of the method: as §1

[6] = tested on: lambsquarters (Chenopodium album); experiment: Test B pre/postemergence; settings: for Lambsquarters plant response rating: Postemergence; for Plant response rating, Lambsquarters: Preemergence
Summary of the method: as §1

[7] = tested on: morningglory (Ipomoea coccinea); experiment: Test B pre/postemergence; settings: for Morningglory plant response rating: Postemergence; for Plant response rating, Morningglory: Preemergence
Summary of the method: as §1

[8] = tested on: pigweed (Amaranthus retroflexus); experiment: Test B pre/postemergence; settings: for Pigweed plant response rating: Postemergence; for Plant response rating, Pigweed: Preemergence
Summary of the method: as §1

[9] = tested on: velvetleaf (Abutilon theophrasti); experiment: Test B pre/postemergence; settings: for Velvetleaf plant response rating: Postemergence; for Plant response rating, Velvetleaf: Preemergence
Summary of the method: as §1

[10] = tested on: wheat (Triticum aestivum); experiment: Test B pre/postemergence; settings: for Wheat plant response rating: Postemergence; for Plant response rating, Wheat: Preemergence
Summary of the method: as §1

[11] = tested on: blackgrass (Alopecurus myosuroides); experiment: Test B postemergence; settings: scale 0 to 100 (0 no effect, 100 complete control)
Summary of the method: as §1

wild oat (Avena fatua) = experiment: Test B postemergence; settings: scale 0 to 100 (0 no effect, 100 complete control)
Summary of the method: as §1

[12] = tested on: barnyardgrass (Echinochloa crus-galli); experiment: Test B flooded paddy test; settings: Flood, scale 0 to 100
Summary of the method: (§2)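 Plants were grown to the 2-leaf stage before treatment, then kept in a greenhouse for 13 to 15 days. Injury was rated visually against untreated controls on a 0 to 100 scale, where 0 is no effect and 100 is complete control.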

[13] = tested on: duck salad (Heteranthera limosa); experiment: Test B flooded paddy test; settings: Flood, scale 0 to 100
Summary of the method: as §2

rice (Oryza sativa) = experiment: Test B flooded paddy test; settings: Flood, scale 0 to 100
Summary of the method: as §2

[14] = tested on: umbrella sedge (Cyperus difformis); experiment: Test B flooded paddy test; settings: Flood, scale 0 to 100
Summary of the method: as §2

[15] = 62 g ai/ha, scale 0 to 100 (0 no effect, 100 complete control)
[16] = 125 g ai/ha, scale 0 to 100 (0 no effect, 100 complete control)
[17] = 62 g ai/ha, scale 0 to 100, 0 no effect, 100 complete control

Structure (SMILES): COC(=O)c1nc(-c2ccc(I)cc2)nc(N)c1Br [Compound 128]
- Surinam Grass plant response rating [1, 15]: 30
- Surinam Grass plant response rating [1, 16]: 40
- Plant response rating, Surinam Grass [1, 17]: 0
- Plant response rating, Surinam Grass [1, 16]: 0
- Barnyardgrass plant response rating [2, 15]: 40
- Barnyardgrass plant response rating [2, 16]: 60
- Plant response rating, Barnyardgrass [2, 17]: 0
- Plant response rating, Barnyardgrass [2, 16]: 10
- Cocklebur plant response rating [3, 15]: 70
- Cocklebur plant response rating [3, 16]: 90
- Plant response rating, Cocklebur [3, 17]: 0
- Plant response rating, Cocklebur [3, 16]: 10
- Corn plant response rating (corn (Zea mays); [15]): 10
- Corn plant response rating (corn (Zea mays); [16]): 70
- Plant response rating, Corn (corn (Zea mays); [17]): 0
- Plant response rating, Corn (corn (Zea mays); [16]): 0
- Crabgrass plant response rating [4, 15]: 20
- Crabgrass plant response rating [4, 16]: 40
- Plant response rating, Crabgrass [4, 17]: 0
- Plant response rating, Crabgrass [4, 16]: 0
- Foxtail, Giant plant response rating [5, 15]: 30
- Foxtail, Giant plant response rating [5, 16]: 50
- Plant response rating, Foxtail, Giant [5, 17]: 0
- Plant response rating, Foxtail, Giant [5, 16]: 0
- Lambsquarters plant response rating [6, 15]: 90
- Lambsquarters plant response rating [6, 16]: 90
- Plant response rating, Lambsquarters [6, 17]: 10
- Plant response rating, Lambsquarters [6, 16]: 50
- Morningglory plant response rating [7, 15]: 40
- Morningglory plant response rating [7, 16]: 90
- Plant response rating, Morningglory [7, 17]: 0
- Plant response rating, Morningglory [7, 16]: 0
- Pigweed plant response rating [8, 15]: 90
- Pigweed plant response rating [8, 16]: 90
- Plant response rating, Pigweed [8, 17]: 10
- Plant response rating, Pigweed [8, 16]: 50
- Velvetleaf plant response rating [9, 15]: 50
- Velvetleaf plant response rating [9, 16]: 80
- Plant response rating, Velvetleaf [9, 17]: 0
- Plant response rating, Velvetleaf [9, 16]: 40
- Wheat plant response rating [10, 15]: 0
- Wheat plant response rating [10, 16]: 20
- Plant response rating, Wheat [10, 17]: 0
- Plant response rating, Wheat [10, 16]: 0
- Blackgrass plant response rating ([11]; 62 g ai/ha): 40
- Blackgrass plant response rating ([11]; 125 g ai/ha): 50
- Oat, Wild plant response rating (wild oat (Avena fatua); 62 g ai/ha): 0
- Oat, Wild plant response rating (wild oat (Avena fatua); 125 g ai/ha): 40
- Plant response rating, Barnyardgrass ([12]; 125 g ai/ha): 0
- Plant response rating, Barnyardgrass ([12]; 500 g ai/ha): 30
- Plant response rating, Ducksalad ([13]; 125 g ai/ha): 90
- Plant response rating, Ducksalad ([13]; 500 g ai/ha): 100
- Plant response rating, Rice (rice (Oryza sativa); 125 g ai/ha): 0
- Plant response rating, Rice (rice (Oryza sativa); 500 g ai/ha): 0
- Plant response rating, Sedge, Umbrella ([14]; 125 g ai/ha): 90
- Plant response rating, Sedge, Umbrella ([14]; 500 g ai/ha): 100
